Reference: PMC3549917, “Characterization of two antimicrobial peptides produced by a halotolerant Bacillus subtilis strain SK.DU.4 isolated from a rhizosphere soil sample” (AMB Express, 2013)
Where no end group is shown, it is not given here.

Columns and labels:
Test in all cases: Well diffusion assay, inhibition spectrum
Assay type in all cases: cell-based
B. subtilis MTCC121 = settings: Polymyxin B at 300 U
Description: (§1) The bacteriocin activity was determined by well diffusion assay. The strain was grown for 24 h in 200 ml nutrient broth (NB, Himedia) using 500 ml flask and subsequently cells were removed by centrifugation (8000 rpm for 20 min, 4°C). The supernatant obtained was filtered by using 0.22 μm filter (Millipore), diluted by two fold and used to test the activity as mentioned earlier (Singh et al. [2012]). The antimicrobial peptide production was also tested by growing the strain in minimal medium. To examine the antimicrobial activity, S. aureus cells were processed for scanning electron micrograph (SEM) as described by earlier (Singh et al. [2012]). Growth curve was prepared to examine the bacteriocin production along with the growth of strain SK.DU4.
(§2) Although the antimicrobial peptides were produced in NB for large scale preparation, the influence of different carbon and nitrogen sources on peptides production was tested using minimal medium. […] The optimum pH for the production of antimicrobial peptides was 7.2 and there was no significant change in pH was observed during the production of antimicrobial peptides. The bacteriocin-like peptide was extracted from CFB by hydrophobic interaction chromatography using Diaion HP-20 beads and purified by a combination of chromatography techniques as described previously (Singh et al. [2012]). Subsequently, the purified peptide was tested for antimicrobial activity against an array of Gram-positive and Gram-negative bacteria, yeasts and fungi strains using well diffusion assays.

L. monocytogenes MTCC839 = settings: 100 μl of the lowest dilution inhibiting test strain, similar results in three individual experiments
Description: as §1, §2

M. luteus MTCC106 = settings: 100 μl of the lowest dilution inhibiting test strain, similar results in three individual experiments
Description: as §1, §2

S. mutans MTCC497 = settings: lipopeptide combined with bacteriocin-like peptide
Description: as §1, §2

DYNQPNS (also: lariat or depsi (positions not given here)) [Lipopeptide, cyclic iturin-like lipopeptide (m/z 1056 Da), β-hydroxy fatty acid linked to Ser of heptapeptide, from strain SK.DU.4]
Inhibition activity (B. subtilis MTCC121): inhibited growth
inhibition zone (L. monocytogenes MTCC839): 11 mm
inhibition zone (M. luteus MTCC106): 11 mm
growth inhibition in combination with bacteriocin-like peptide (S. mutans MTCC497): inhibited the growth
